Assay results published in US20260014125A1, “BICYCLIC-TYPE MAT2A INHIBITOR AND USE THEREOF” (HAIHE BIOPHARMA CO., LTD., priority 2022, published 2026).

Columns and labels:
[1] = tested on: human B-cell lymphoma DOHH-2 cell subcutaneous xenograft tumor; assay: In vivo anti-tumor efficacy in the DOHH-2 cell subcutaneous xenograft tumor model; set-up: species or system mice; conditions: DOHH-2 xenograft; for T/C (%) / TGI (%): intragastric, female CB-17 SCID mice
Protocol: The in vivo anti-tumor efficacy of compound 13 and AG-270 (MAT2A inhibitor,
were evaluated using a human B-cell lymphoma DOHH-2 cell subcutaneous xenograft tumor model.
The female CB-17 SCID mice used were purchased from Beijing Vital River Laboratory Animal Technology Co., Ltd. Tumor cell culture and subcutaneous inoculation: Human B-cell lymphoma DOHH-2 cells (DSMZ) were cultured in vitro in RPMI-1640 medium containing 10% fetal bovine serum and 1% […], and incubated in a 5% CO2 incubator at 37° C. When the required number of cells was reached, the cells were collected, and counted. 0.2 mL (10×10^6) of DOHH-2 cells (with matrix gel added, volume ratio of 1:1) were subcutaneously inoculated into the right back of each mouse. When the average tumor volume reached 100-150 mm^3, random grouping would begin, with 5 mice in each group. The administration group (compound 13 or compound AG-270) was performed intragastric administration twice a day (dosage shown in Table 3), while the negative control group was performed intragastric administration using the same volume of blank solvent per day.
The experimental indicator was to examine whether tumor growth was inhibited, delayed, or cured. The tumor diameter was measured twice a week using a vernier caliper. The formula for calculating tumor volume was: V=0.5a×b^2, wherein a and b indicated the long and short diameters of tumors, respectively.
The anti-tumor efficacy of the compound was evaluated using TGI (%) or relative tumor proliferation rate T/C (%).
TGI (%) reflects the tumor growth inhibition rate. Calculation of TGI (%). TGI (%)=[(1−(average tumor volume at the end of administration in the treatment group-average tumor volume at the beginning of administration in the treatment group))/(average tumor volume at the end of treatment in the negative control group-average tumor volume at the beginning of treatment in the negative control group)]×100%.
Relative tumor proliferation rate TIC (%): The calculation formula was as follows: T/C %=TRTV/CRTV×100% (TRTV: administration group RTV: CRTV: negative control group RTV). The calculation formula of the relative tumor volume (RTV) was RTV=Vt/V0, wherein V0 was the average tumor volume measured at the time of group administration (i.e. d0), Vt was the average tumor volume measured at a certain measurement, and TRTV and CRTV took the same day's data.

MAT2A = MAT2A (Homo sapiens (Human), UniProt P31153); assay: Biochemical test: inhibition of MAT2A enzyme activity (phosphate detection, OD620); conditions: MAT2A his-tag; 150 minutes enzymatic reaction
Chain of MAT2A (P31153 whole entry): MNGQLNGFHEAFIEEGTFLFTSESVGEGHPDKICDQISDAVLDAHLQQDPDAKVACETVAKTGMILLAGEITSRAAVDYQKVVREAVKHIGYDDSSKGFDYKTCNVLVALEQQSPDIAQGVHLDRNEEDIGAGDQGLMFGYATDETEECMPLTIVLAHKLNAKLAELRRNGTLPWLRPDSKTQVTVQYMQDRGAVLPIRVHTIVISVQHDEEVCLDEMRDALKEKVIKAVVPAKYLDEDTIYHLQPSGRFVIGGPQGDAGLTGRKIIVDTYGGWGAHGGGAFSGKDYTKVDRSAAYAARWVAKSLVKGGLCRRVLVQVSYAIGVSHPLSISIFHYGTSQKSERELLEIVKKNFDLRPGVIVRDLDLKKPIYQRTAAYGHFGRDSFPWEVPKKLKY
Description: Experimental principle: MAT2A can catalyze the conversion of L-methionine and ATP into SAM, inorganic phosphate, and inorganic diphosphate. By adding a chromogenic reagent to the enzymatic reaction system, the content of inorganic phosphates in a sample can be quantitatively detected, thereby characterizing the enzymatic activity of MAT2A.
Experimental material: Tris (Life Science #0497); BSA (Sigma #); MAT2A his-tag (BPS #71401-1); 384 well plate (Corning #3765); L-methionine (Admas #1100469); ATP (Sigma #A7699); MgCl2 (Sigma #M8266); KCl (Sigma #7447-40-7); Brij35 (Sigma #B4184); EDTA (Sigma #E1644)
1. 1×Assaybuffer (buffer composition: Tris, KCl, MgCl2, BSA, Brij35, and EDTA; the solvent was ultrapure water) was prepared. MAT2A his-tag enzyme solution (containing 1.3 μL of MAT2A enzyme and 998.7 μL of 1×Assaybuffer per 1000 μL) and substrate mixed solution (containing 5 μL of ATP, 1.3 μL of L-methionine, and 993.7 μL of 1×Assaybuffer per 1000 μL) were prepared using 1×AssayBuffer.
2. Preparation of compound concentration gradient: The test compound was tested with a starting concentration of 10 μM, and 10 equimolar concentrations were set according to a 3-fold dilution. Specifically, firstly, the compound was diluted into 10 different concentrations of series solutions in a 384 well plate (with final detection concentrations of 10, 3.33, 1.11, 0.37, 0.123, 0.041, 0.0137, 0.0046, 0.0015, and 0.0005 μM), and then 250 nL of the above series solutions was transferred to the 384 well reaction plate using an ultrasonic pipetting system Echo550 for later use. 250 nL of 100% DMSO was added into a negative control well and a positive control well, respectively. Double well test.
3. 15 μL of MAT2A his-tag enzyme solution was added into both the compound well and the positive control well; and 15 μL of 1×Assaybuffer was added into the negative control well.
4. The 384 well plate reaction plate was centrifuged at 1000 rpm for 60 seconds, shaken, mixed well, and incubated for 15 minutes. 10 μL of substrate mixed solution was added into each experimental well of the 384 well reaction plate to initiate the reaction.
5. The 384 well reaction plate was centrifuged at 1000 rpm for 60 seconds, shaken, mixed well, and incubated for 150 minutes.
6. 50 μL of enzyme reaction termination solution Biomol was added into all experimental wells of the 384 well reaction plate to terminate the reaction, centrifuged at 1000 rpm for 60 seconds, and incubated for 15 minutes. OD620 was read and data was processed.
Data analysis: the inhibition rate (%) of the compound was calculated and fitted to obtain the IC50 of the tested compound. Calculation method for compound inhibition rate: Compound inhibition rate (%)=(OD620_max−OD620_stample)/(OD620_max−OD620_min)×100, wherein OD620_stample was the absorbance value of the sample well; OD620 min was the absorbance value of the positive control well, indicating the reading of the wells without enzyme activity; and OD620_max was the absorbance value of the negative control well, indicating the reading of the well without compound inhibition.

KP-4 cells = assay: Human pancreatic cancer KP-4 cell activity inhibition test (CellTiter-Glo); type: cell-based; conditions: 5 days
Protocol: Experimental principle: after co-incubating the MAT2A inhibitor to be tested with KP-4 cells for a period of time, a cell viability measurement method based on ATP content is used to characterize the effect of the tested compound on cell viability.
Experimental material: KP-4 cells (JCRB #JCRB0182); IMDM (Gibco 912440061); fetal bovine serum (EXCELL #FND500); penicillin-streptomycin (Gibco #15140-122); 0.25% Typsin-EDTA (Gibco #252(101-072); DMSO (Sigma #D2650); 96 well plate (Corning #3610); CellTiter-Glo (Promega #G7571)
1. KP-4 cells were cultured in IMDM culture medium containing 10% e fetal bovine serum and 1% penicillin-streptomycin at 37° C. and 5% CO2 in a cell culture incubator. Only cells in logarithmic growth phase were used for subsequent experiments.
2. The cells in logarithmic growth phase were inoculated into a 96 well plate, with a seeding quantity of 500 cells per well, and incubated overnight in a cell culture incubator at 37′C and 5% CO2.
3. The compound was dissolved with DMSO, diluted with culture medium to 10 different concentrations (approximately […]), 3333.3, 1111.1, 370, 123, 41.2, 13.7, 4.6, 1.5, and 0.5 nM) before adding it to the cell plate, and cultured at 37° C. and 5% CO2 for 5 days.
4. CellTiter-Glo reagent was added, and an enzyme-linked immunosorbent assay reader was used to detect cell viability.
Data analysis: the inhibition rate (%) of the compound was calculated and fitted to obtain the IC50 of the tested compound. Calculation method for compound inhibition rate: Compound inhibition rate (%)=(Signal_max−Signal_sample)/(Signal_max−Signal_min)×100, wherein Signal_sample was the sample well reading, indicating the cell activity of the compound inhibition well; Signal_min was the positive control well reading, indicating the background activity without cells; and Signal_max was the negative control well reading, indicating the cell activity of the well without compound inhibition.

Structure (SMILES) | IC50 (MAT2A) [nM] | IC50 (KP-4 cells; Homo sapiens, 120 h) [nM] | other results
COc1ccc(-c2c(Nc3ccccn3)[nH]c3c(C4=CCCCC4)c(-c4ccccc4)nn3c2=O)cc1 [AG-270, reference compound] |  |  | T/C (%) ([1]; 80 mg/kg, QD): 22.32%; TGI (%) ([1]; 80 mg/kg, QD): 82.92%
CCOc1c(-c2ccc(OC(F)F)cc2)c(=O)n(-c2ccc3nn(CC)cc3c2)c2[nH]ncc12 [Compound 19] | 16.6 |  | IC50 (KP-4 cells): 7.4 nM
CCOc1c(-c2ccc(Cl)cc2)c(=O)n(-c2ccc3nn(C)nc3n2)c2[nH]ncc12 [Compound 137] | 16.8 | 427 | 
CCOc1c(-c2ccc(OC(F)F)cc2)c(=O)n(-c2ccc3nncn3c2)c2[nH]ncc12 [Compound 26] | 13.5 | 659 | 
CCNc1c(-c2ccc(OC)cc2)c(=O)n(-c2ccc3nn(C)cc3c2)c2[nH]ncc12 [Compound 2] | 17.5 | 70.8 | 
CCOc1c(-c2ccc(Cl)cc2)c(=O)n(-c2ccc3nn(C)cc3c2)c2[nH]ncc12 [Compound 13] | 15.1 | 7.4 | T/C (%) ([1]; 5 mg/kg, BID): 35.54%; TGI (%) ([1]; 5 mg/kg, BID): 68.82%; T/C (%) ([1]; 10 mg/kg, BID): 26.46%; TGI (%) ([1]; 10 mg/kg, BID): 78.48%; T/C (%) ([1]; 20 mg/kg, BID): 15.98%; TGI (%) ([1]; 20 mg/kg, BID): 89.67%; in vivo efficacy, in words ([1]; 5, 10, 20 mg/kg BID): dose-dependent in vivo efficacy
Cn1cc2nc(-n3c(=O)c(-c4ccc(Cl)cc4)c(OCC(F)(F)F)c4cn[nH]c43)ccc2n1 [Compound 99] | 16.1 | 87.8 | 
CCOc1c(-c2ccc(OC(F)F)cc2)c(=O)n(-c2ccc3nn(C4COC4)cc3c2)c2[nH]ncc12 [Compound 37] | 11 | 36 | 
CCNc1c(-c2ccc(OC(F)F)cc2)c(=O)n(-c2ccc3nn(C)cc3n2)c2[nH]ncc12 [Compound 129] | 17.8 | 23.3 | 
CCOc1c(-c2ccc(Cl)cc2)c(=O)n(-c2ccc3nn(C)cc3n2)c2nn(C)cc12 [Compound 109] | 23.2 | 128 | 
CNc1c(-c2ccc(OC)cc2)c(=O)n(-c2ccc3nn(C)cc3c2)c2[nH]ncc12 [Compound 4] | 62 | 28 | 
Cn1cc2nc(-n3c(=O)c(-c4ccc(Cl)cc4)c(OCC4CC4)c4cn[nH]c43)ccc2n1 [Compound 96] | 17.6 | 32 | 
Cc1ccc(-c2c(OCC(F)(F)F)c3cn[nH]c3n(-c3ccc4nn(C)cc4c3)c2=O)cn1 [Compound 52] | 17.6 | 9 | 
CCOc1c(-c2ccc(OC(F)F)cc2)c(=O)n(-c2ccc3nn(C)cc3c2)c2nn(C)cc12 [Compound 45] | 10.5 | 89.1 | 
CCOc1c(-c2ccc(C)cc2)c(=O)n(-c2ccc3nn(C)cc3c2)c2[nH]ncc12 [Compound 117] | 17.2 | 23.7 | 
CCOc1c(-c2ccc(OC(F)F)cc2)c(=O)n(-c2ccc3nn(CCO)cc3c2)c2[nH]ncc12 [Compound 20] | 9.8 |  | IC50 (KP-4 cells): 224 nM
